For assay [1], the system named is membrane PR in HAEC. The experiment in a line: Fluorescent membrane labeling of HAEC at 4° C. The following applies: for fluorescent membrane labeling / membrane binding: 4° C. (cells impermeable), FIG. 13A. The class given is cell-based, human. As to the method: Fluorescent membrane labeling studies were performed with both ligand (progesterone conjugated to BSA) and with antibody C19 at 4° C. Experimentation at cold temperatures keeps the cells impermeable; thus, ligand or antibody cannot enter the cell, and specific binding is restricted to the membrane.
In FIG. 13B, a light microscopy image of the same field as in FIG. 13A is shown to illustrate the position of the cells.
Controls used for these experiments include exposure with BSA and the fluorescent tag in the absence of progesterone for the ligand binding study and use of peptide neutralization for the antibody labeling study. […] Approximately 10% of all cells show positive staining. This percentage has been found by other investigators in experiments with sperm. The reason for this low percentage of staining is not yet clear. One possibility includes differential expression of the membrane PR during the cell cycle.

In assay [2] the test system is Aortic endothelial cells (HAEC). The assay can be described thus: Calcium response of HAEC to progesterone (fluo-3AM fluorescence). The class given is cell-based, human. The following applies: progesterone 50 μM. As for the experimental part: Aortic endothelial cells were cultured in 100 cm petri dishes. All solutions including washes contained probenecid, a chemical that minimizes leakage of fluorophore from the cells. The medium contained BSA, fluo-3-[…] (fluo-3AM), and pluronic F-127, an agent that facilitates diffusion of fluorophore through cell membranes. The cells were incubated for 1 hour at RT. Following incubation, the cells were washed several times and then treated with trypsin. After washing, the cells were enumerated by counting in a hemacytometer and the cell number was adjusted to a predetermined value. Progesterone (50 μM) was added to cell suspensions just prior to fluorescence measurement. An aliquot of the cell suspension was placed in a cuvette and measured in a SLM-8000C fluorescence spectrophotometer. The cells were excited at 504 nm and emitted fluorescence measured at 526 nm. The data (not shown) establishes an immediate 1.5-fold increase in calcium influx with exposure to progesterone. Since this reaction occurred within 2-3 seconds, it is clear that this is a nongenomic response to a sex steroid.

For the molecule `CC(=O)[C@H]1CC[C@H]2[C@@H]3CCC4=CC(=O)CC[C@]4(C)[C@H]3CC[C@]12C` [progesterone, Progesterone], in assay [1], the “fluorescent membrane labeling / membrane binding” value was “specific membrane binding”. Besides, the “cells showing positive staining for the membrane PR” value in assay [1] (fluorescent membrane labeling, 4° C., FIGS. 13A-13D) is “Approximately 10%”. Besides, the “increase in calcium influx” value in assay [2] (HAEC suspension, fluo-3AM, excitation 504 nm, emission 526 nm, data not shown) came out at 1.5 fold. Moreover, the “time within which the calcium reaction occurred” value in assay [2] (HAEC) lay within 2 to 3 s.

As for “progesterone conjugated to BSA: progesterone-conjugated bovine serum albumin-fluorescein isothiocyanate (Sigma), ligand for fluorescent membrane labeling”, in assay [1], the “fluorescent membrane labeling / membrane binding” value was “staining of the membrane is well seen”.

(Values after patent publication US20020197670A1, “Membrane associated progesterone receptor” (priority 2001, published 2002).)
